This is an account of results in patent publication US20260327214A1, “1,3,4-OXADIAZOLE DERIVATIVE COMPOUNDS AS HISTONE DEACETYLASE 6 INHIBITOR, AND USES THEREOF” (CHONG KUN DANG PHARMACEUTICAL CORP., priority 2022, published 2026).

Bounds are passed on as bounds.

The target of one test is T1, human recombinant HDAC6 (Homo sapiens, UniProt Q9UBN7).
T1 construct: purchased Calbiochem 382180
T1 sequence (Q9UBN7 1-1215): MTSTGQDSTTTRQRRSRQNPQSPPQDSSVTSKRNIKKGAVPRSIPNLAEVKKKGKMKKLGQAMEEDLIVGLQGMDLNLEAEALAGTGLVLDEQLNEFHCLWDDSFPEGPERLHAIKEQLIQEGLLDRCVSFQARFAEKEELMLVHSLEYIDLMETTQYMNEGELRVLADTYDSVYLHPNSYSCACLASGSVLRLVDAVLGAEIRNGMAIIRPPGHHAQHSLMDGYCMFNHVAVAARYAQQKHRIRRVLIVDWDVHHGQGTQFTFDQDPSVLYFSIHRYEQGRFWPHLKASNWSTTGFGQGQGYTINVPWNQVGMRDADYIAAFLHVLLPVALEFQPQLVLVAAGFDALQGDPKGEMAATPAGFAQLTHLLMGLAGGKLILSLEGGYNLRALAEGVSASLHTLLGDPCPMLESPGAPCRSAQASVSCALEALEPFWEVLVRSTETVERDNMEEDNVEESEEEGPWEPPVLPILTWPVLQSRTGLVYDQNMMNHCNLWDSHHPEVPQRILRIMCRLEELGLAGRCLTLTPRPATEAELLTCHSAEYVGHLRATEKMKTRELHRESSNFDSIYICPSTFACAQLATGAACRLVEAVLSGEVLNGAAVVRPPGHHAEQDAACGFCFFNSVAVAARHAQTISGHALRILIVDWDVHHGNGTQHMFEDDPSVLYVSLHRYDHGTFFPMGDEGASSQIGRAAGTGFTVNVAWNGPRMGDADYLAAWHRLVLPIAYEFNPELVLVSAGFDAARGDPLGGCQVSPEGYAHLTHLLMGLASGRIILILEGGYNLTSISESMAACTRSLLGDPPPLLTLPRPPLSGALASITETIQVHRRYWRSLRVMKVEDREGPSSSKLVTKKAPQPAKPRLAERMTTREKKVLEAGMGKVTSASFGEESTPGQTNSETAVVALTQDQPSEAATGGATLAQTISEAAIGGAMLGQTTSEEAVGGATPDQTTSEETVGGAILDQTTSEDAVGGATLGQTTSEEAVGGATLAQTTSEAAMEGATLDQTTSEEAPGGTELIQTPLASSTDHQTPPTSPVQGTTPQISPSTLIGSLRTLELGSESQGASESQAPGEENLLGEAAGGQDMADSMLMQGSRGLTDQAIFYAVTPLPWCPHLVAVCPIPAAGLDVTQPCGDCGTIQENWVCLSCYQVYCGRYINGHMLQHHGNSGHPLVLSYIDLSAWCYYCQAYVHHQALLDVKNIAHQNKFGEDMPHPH
The test is described as follows: HDAC6 enzyme activity inhibition test (HDAC Fluorometric Drug Discovery Kit). The test is classed as biochemical. To be noted: for HDAC6 selectivity (fold): HDAC6 over HDAC1; for IC50: human recombinant HDAC6, same protocol as HDAC1. The method in brief:
(§1)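 IC50 derived from fluorescence (Ex 360, Em 460) following 30 min development with Developer II. Each reaction held 0.3 μg human recombinant HDAC1 or HDAC6, 10 μM Fluor de Lys SIRT1 substrate and 5-fold serially diluted compound, incubated 60 min at 30 °C.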

The target of another test is T2, human recombinant HDAC1 (Homo sapiens, UniProt Q13547).
T2 construct: purchased Enzo Life Science BML-SE456
The test can be described thus: HDAC1 enzyme activity inhibition test (HDAC Fluorometric Drug Discovery Kit). Type of test: biochemical. The following applies: 30° C., 60 minutes, 10 μM substrate. The method in brief: as §1

T2 sequence (Q13547 whole entry): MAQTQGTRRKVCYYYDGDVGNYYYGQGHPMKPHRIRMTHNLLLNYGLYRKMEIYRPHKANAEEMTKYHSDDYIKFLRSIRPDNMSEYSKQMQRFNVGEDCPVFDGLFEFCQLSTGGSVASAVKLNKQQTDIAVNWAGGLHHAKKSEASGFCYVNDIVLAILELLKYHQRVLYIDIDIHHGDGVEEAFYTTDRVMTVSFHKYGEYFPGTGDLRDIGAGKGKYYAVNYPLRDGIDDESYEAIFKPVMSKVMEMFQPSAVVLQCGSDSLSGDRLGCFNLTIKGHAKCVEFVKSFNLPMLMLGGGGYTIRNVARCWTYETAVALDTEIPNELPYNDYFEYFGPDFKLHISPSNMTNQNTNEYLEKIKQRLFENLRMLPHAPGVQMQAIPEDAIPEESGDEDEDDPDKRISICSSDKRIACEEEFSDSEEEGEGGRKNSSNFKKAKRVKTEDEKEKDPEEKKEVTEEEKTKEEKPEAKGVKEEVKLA

On to `FC(F)c1nnc(-c2ccc(Cn3nc(-c4ccccc4)oc3=S)nc2)o1` [Compound 45, 3-((5-(5-(difluoromethyl)-1,3,4-oxadiazol-2-yl)pyridin-2-yl)methyl)-5-phenyl-1,3,4-oxadiazol-2(3H)-thione], for which, at human recombinant HDAC6, the “HDAC6 selectivity (fold)” value is on record as 543 fold and the IC50 (usually the concentration at which inhibition is half-maximal) stood at 92 nM. Besides, on human recombinant HDAC1, the half-inhibitory concentration (IC50) was above 50000 nM.
For `FC(F)c1nnc(-c2ccc(Cn3nc(-c4ccccn4)oc3=S)nc2)o1` [Compound 46, 3-[[5-[5-(difluoromethyl)-1,3,4-oxadiazol-2-yl]-2-pyridyl]methyl]-5-(2-pyridyl)-1,3,4-oxadiazol-2-thione] the same measures were 1171 fold, 42.7 nM and above 50000 nM.
On to `Fc1cc(-c2nnc(C(F)F)o2)cnc1Cn1nc(-c2ccccn2)oc1=S` [Compound 47, 3-[[5-[5-(difluoromethyl)-1,3,4-oxadiazol-2-yl]-3-fluoro-2-pyridyl]methyl]-5-(2-pyridyl)-1,3,4-oxadiazol-2-thione], for which, on human recombinant HDAC6, the “HDAC6 selectivity (fold)” value is 1548 fold and the IC50 amounted to 32.3 nM. Further, at human recombinant HDAC1, the IC50 is above 50000 nM.
For `Fc1cccc(-c2nn(Cc3ncc(-c4nnc(C(F)F)o4)cc3F)c(=S)o2)c1` [Compound 48, 3-[[5-[5-(difluoromethyl)-1,3,4-oxadiazol-2-yl]-3-fluoro-2-pyridyl]methyl]-5-(3-fluorophenyl)-1,3,4-oxadiazol-2-thione] the same measures were 437 fold, 114 nM and above 50000 nM.
Taken in the same sequence, the figures for `O=c1sc(-c2ccccn2)nn1Cc1ccc(-c2nnc(C(F)F)o2)cn1` [Compound 49, 3-[[5-[5-(difluoromethyl)-1,3,4-oxadiazol-2-yl]-2-pyridyl]methyl]-5-(2-pyridyl)-1,3,4-thiadiazol-2-one] were 656 fold, 76.2 nM and above 50000 nM.
For `FC(F)c1nnc(-c2ccc(Cn3nc(-c4cccs4)oc3=S)nc2)o1` [Compound 50, 3-[ [5-[5-(difluoromethyl) -1,3,4-oxadiazol-2-yl] -2-pyridyl]methyl] -5-(2-thienyl)-1,3,4-oxadiazol-2-thione] the same measures were 588 fold, 85.1 nM and above 50000 nM.
Turning to `Fc1cc(-c2nnc(C(F)F)o2)cnc1Cn1nc(-c2cccs2)oc1=S` [Compound 51, 3-[[5-[5-(difluoromethyl)-1,3,4-oxadiazol-2-yl]-3-fluoro-2-pyridyl]methyl]-5-(2-thienyl)-1,3,4-oxadiazol-2-thione], on human recombinant HDAC6, the “HDAC6 selectivity (fold)” value was found to be 601 fold and the IC50 was 83.2 nM. In addition, at human recombinant HDAC1, the IC50 was above 50000 nM.
Turning to `FC(F)c1nnc(-c2ccc(Cn3nc(-c4cccnc4)oc3=S)nc2)o1` [Compound 52, 3-[[5-[5-(difluoromethyl)-1,3,4-oxadiazol-2-yl]-2-pyridyl]methyl]-5-(3-pyridyl)-1,3,4-oxadiazol-2-thione], at human recombinant HDAC6, the “HDAC6 selectivity (fold)” value was 473 fold and the IC50 was found to be 106 nM. Moreover, on human recombinant HDAC1, the concentration for half-maximal inhibition (IC50) was above 50000 nM.
On to `Fc1cc(-c2nnc(C(F)F)o2)cnc1Cn1nc(-c2cnccn2)oc1=S` [Compound 53, 3-[[5-[5-(difluoromethyl)-1,3,4-oxadiazol-2-yl]-3-fluoro-2-pyridyl]methyl]-5-pyrazine-2-yl-1,3,4-oxadiazol-2-thione], for which, at human recombinant HDAC6, the “HDAC6 selectivity (fold)” value is recorded as 560 fold and the IC50 is 89.3 nM. Also, the IC50 at human recombinant HDAC1 is above 50000 nM.
For `O=c1sc(-c2ccccc2F)nn1Cc1ccc(-c2nnc(C(F)F)o2)cn1` [Compound 54, 3-[[5-[5-(difluoromethyl)-1,3,4-oxadiazol-2-yl]-2-pyridyl]methyl]-5-(2-fluorophenyl)-1,3,4-thiadiazol-2-one] the same measures were 444 fold, 113 nM and above 50000 nM.
